Measured values published in ChEMBL document CHEMBL1201862, “PubChem BioAssay data set” (2004).
Blank lines part the entries; values can stand above or below the compound they belong to. Calls of active or inactive are those of the source.

Key:
Type in all cases: functional
[1] = biological target: Receptor tyrosine-protein kinase erbB-2 (Homo sapiens, UniProt P04626); assay: Navigating the Kinome. Panel member name: ERBB2
[2] = biological target: RAC-alpha serine/threonine-protein kinase (Homo sapiens, UniProt P31749);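 further: AKT1 affinity measured as one member of a kinome-wide kinase profiling panel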
Sequence of RAC-alpha serine/threonine-protein kinase (P31749 whole entry): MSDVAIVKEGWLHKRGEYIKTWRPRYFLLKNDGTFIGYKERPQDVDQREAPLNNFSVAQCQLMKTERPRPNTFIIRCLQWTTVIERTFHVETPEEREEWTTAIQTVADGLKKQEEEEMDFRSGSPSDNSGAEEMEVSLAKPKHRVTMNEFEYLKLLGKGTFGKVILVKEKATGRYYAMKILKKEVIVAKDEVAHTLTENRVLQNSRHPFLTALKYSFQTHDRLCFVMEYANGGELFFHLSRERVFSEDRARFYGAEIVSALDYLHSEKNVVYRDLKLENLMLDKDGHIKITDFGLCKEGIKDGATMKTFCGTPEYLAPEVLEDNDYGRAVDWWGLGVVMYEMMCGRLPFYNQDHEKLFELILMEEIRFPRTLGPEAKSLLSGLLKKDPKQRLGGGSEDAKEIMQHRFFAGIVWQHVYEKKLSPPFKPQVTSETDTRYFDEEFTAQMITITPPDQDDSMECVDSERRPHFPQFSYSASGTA

[3] = biological target: Serine/threonine-protein kinase D3 (Homo sapiens, UniProt O94806);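 further: determined within a kinase panel screen, with PRKCN as the panel member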
Sequence of Serine/threonine-protein kinase D3 (O94806 whole entry): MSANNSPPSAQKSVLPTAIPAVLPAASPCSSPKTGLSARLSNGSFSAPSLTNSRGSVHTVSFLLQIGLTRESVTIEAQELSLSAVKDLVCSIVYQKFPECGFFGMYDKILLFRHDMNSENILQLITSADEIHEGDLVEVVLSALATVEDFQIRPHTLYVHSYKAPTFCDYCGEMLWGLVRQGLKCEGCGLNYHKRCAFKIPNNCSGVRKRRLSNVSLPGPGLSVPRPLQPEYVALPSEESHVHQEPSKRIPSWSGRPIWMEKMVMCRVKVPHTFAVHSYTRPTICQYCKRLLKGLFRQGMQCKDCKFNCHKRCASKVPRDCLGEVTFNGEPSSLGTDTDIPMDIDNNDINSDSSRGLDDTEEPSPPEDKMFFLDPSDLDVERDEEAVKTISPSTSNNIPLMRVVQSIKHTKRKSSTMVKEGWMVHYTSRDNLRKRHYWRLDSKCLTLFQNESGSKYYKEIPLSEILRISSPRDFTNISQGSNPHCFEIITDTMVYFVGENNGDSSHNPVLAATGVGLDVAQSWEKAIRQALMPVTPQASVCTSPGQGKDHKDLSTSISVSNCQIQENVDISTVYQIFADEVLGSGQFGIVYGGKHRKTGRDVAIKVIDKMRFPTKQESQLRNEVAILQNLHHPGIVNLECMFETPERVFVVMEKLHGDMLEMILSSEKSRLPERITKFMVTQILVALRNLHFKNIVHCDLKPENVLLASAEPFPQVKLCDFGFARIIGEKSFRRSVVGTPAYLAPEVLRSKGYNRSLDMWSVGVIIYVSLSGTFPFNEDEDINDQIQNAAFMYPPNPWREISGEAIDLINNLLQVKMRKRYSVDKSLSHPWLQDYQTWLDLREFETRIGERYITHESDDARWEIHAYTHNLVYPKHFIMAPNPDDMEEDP

[4] = biological target: Serine/threonine-protein kinase PAK 4 (Homo sapiens, UniProt O96013);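 further: value obtained within a kinome profiling panel in which PAK4 was one of the panel members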
[5] = biological target: Casein kinase II subunit alpha (Homo sapiens, UniProt P68400)
[6] = biological target: Fibroblast growth factor receptor 1 (Homo sapiens, UniProt P11362)
Sequence of Fibroblast growth factor receptor 1 (P11362 whole entry): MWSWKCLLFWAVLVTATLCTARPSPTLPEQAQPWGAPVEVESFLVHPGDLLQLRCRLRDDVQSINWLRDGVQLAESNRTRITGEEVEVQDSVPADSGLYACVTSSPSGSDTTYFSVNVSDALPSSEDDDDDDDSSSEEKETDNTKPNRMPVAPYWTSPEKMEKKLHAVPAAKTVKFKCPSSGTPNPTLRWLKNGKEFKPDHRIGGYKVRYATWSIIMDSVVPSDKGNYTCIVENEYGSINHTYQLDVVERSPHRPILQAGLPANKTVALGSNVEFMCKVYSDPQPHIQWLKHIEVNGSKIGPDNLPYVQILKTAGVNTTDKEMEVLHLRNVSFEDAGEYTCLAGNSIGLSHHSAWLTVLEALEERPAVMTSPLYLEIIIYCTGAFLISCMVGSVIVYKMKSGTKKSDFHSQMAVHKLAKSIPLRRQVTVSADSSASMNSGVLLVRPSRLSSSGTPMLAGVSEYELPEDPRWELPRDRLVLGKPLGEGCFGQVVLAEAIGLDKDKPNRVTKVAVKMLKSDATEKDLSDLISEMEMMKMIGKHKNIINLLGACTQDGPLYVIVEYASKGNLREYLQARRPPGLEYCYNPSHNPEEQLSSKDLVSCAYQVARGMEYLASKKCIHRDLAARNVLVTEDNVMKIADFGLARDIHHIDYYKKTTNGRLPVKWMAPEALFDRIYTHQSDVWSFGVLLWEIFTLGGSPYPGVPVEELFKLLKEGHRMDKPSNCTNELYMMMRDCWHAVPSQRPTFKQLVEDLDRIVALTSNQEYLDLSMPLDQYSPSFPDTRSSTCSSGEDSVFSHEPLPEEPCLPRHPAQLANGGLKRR

[7] = biological target: Vascular endothelial growth factor receptor 3 (Homo sapiens, UniProt P35916);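 further: value from a kinome-wide profiling panel, with FLT4 as the panel member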
[8] = biological target: Leucine-rich repeat serine/threonine-protein kinase 2 (Homo sapiens, UniProt Q5S007);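 further: value from a broad kinome-wide panel profiling study in which LRRK2 was one of the kinases tested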
Aurora kinase B = Aurora kinase B (Homo sapiens, UniProt Q96GD4)
[9] = biological target: STE20-like serine/threonine-protein kinase (Homo sapiens, UniProt Q9H2G2)
[10] = biological target: Protein kinase C theta type (Homo sapiens, UniProt Q04759); assay: Navigating the Kinome. Panel member name: PRKCQ
Sequence of Protein kinase C theta type (Q04759 whole entry): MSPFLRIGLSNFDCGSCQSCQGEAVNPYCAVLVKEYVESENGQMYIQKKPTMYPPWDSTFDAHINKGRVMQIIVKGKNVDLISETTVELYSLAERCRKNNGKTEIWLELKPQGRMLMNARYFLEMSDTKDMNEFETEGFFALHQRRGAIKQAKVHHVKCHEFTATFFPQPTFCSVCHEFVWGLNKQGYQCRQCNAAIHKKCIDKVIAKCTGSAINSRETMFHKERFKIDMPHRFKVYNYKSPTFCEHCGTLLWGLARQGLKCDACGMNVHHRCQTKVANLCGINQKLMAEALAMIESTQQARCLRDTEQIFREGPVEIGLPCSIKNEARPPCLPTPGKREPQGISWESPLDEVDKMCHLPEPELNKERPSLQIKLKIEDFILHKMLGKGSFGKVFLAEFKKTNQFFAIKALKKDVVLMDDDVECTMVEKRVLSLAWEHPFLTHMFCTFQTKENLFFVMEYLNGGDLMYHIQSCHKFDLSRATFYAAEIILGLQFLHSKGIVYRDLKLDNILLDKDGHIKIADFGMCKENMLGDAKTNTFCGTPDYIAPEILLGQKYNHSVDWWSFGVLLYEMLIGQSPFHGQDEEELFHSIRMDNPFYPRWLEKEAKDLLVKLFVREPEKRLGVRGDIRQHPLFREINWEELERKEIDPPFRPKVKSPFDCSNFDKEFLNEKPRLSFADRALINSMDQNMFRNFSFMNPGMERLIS

[11] = biological target: Protein kinase C delta type (Homo sapiens, UniProt Q05655)
[12] = biological target: Tyrosine-protein kinase BTK (Homo sapiens, UniProt Q06187)
[13] = biological target: Tyrosine-protein kinase Fyn (Homo sapiens, UniProt P06241)
[14] = biological target: Dual specificity protein kinase CLK2 (Homo sapiens, UniProt P49760)
Sequence of Dual specificity protein kinase CLK2 (P49760 whole entry): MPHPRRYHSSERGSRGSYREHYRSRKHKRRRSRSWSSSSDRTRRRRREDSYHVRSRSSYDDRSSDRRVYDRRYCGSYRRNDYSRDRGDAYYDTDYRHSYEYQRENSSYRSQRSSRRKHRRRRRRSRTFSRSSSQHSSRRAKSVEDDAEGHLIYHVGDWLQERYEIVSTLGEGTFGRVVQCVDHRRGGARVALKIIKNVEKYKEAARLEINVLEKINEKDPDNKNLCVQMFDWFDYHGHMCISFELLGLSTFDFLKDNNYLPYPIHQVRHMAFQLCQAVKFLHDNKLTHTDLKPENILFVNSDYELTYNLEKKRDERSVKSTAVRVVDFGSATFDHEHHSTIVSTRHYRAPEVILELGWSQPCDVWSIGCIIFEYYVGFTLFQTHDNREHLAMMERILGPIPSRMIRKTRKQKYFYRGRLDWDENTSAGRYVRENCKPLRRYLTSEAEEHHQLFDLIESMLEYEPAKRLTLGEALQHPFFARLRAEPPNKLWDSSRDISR

[15] = biological target: Serine/threonine-protein kinase PLK3 (Homo sapiens, UniProt Q9H4B4)
[16] = biological target: Macrophage colony-stimulating factor 1 receptor (Homo sapiens, UniProt P07333);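 further: value comes from the Navigating the Kinome screening panel, CSF1R member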
[17] = biological target: Mitogen-activated protein kinase kinase kinase kinase 2 (Homo sapiens, UniProt Q12851);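 further: measured as one member of a kinome-wide kinase panel, with MAP4K2 as the panel entry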
[18] = biological target: Interleukin-1 receptor-associated kinase 1 (Homo sapiens, UniProt P51617);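 further: IRAK1 tested as one member of a kinome panel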
Sequence of Interleukin-1 receptor-associated kinase 1 (P51617 whole entry): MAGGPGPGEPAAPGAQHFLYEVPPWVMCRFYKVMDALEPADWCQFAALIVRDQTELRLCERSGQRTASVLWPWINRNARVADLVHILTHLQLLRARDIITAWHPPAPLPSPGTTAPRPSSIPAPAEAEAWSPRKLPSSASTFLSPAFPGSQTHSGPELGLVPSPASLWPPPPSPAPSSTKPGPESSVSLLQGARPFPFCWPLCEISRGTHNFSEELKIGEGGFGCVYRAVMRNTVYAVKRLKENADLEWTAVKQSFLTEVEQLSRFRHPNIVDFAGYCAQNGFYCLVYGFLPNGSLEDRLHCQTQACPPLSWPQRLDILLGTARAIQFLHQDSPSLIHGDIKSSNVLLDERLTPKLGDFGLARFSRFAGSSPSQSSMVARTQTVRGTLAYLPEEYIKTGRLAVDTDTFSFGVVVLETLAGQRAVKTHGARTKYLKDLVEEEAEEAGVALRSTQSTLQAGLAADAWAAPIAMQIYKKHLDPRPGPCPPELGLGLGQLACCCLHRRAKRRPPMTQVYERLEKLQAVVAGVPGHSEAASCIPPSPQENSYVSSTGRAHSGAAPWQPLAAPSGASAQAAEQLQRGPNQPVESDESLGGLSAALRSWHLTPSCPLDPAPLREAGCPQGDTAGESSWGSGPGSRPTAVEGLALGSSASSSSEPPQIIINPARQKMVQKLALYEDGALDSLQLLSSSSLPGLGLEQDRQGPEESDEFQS

[19] = biological target: Serine/threonine-protein kinase Nek2 (Homo sapiens, UniProt P51955)
[20] = biological target: RAC-gamma serine/threonine-protein kinase (Homo sapiens, UniProt Q9Y243)
[21] = biological target: Mitogen-activated protein kinase 9 (Homo sapiens, UniProt P45984);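 further: value from a kinome panel profiling assay, MAPK9 panel entry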
Sequence of Mitogen-activated protein kinase 9 (P45984 whole entry): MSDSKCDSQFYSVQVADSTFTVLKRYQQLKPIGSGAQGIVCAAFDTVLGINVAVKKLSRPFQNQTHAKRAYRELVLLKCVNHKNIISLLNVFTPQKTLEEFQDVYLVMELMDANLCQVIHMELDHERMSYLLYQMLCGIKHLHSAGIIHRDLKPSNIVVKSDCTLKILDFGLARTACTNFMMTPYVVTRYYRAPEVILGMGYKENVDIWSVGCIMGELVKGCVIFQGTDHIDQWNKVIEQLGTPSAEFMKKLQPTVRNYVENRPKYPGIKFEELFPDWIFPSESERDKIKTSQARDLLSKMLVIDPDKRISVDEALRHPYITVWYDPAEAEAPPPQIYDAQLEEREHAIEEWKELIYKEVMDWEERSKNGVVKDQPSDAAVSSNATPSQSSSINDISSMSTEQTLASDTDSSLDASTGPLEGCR

[22] = biological target: 5'-AMP-activated protein kinase catalytic subunit alpha-1 (Homo sapiens, UniProt Q13131)
[23] = biological target: Casein kinase I isoform delta (Homo sapiens, UniProt P48730);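 further: measured as one member (CSNK1D) of a kinome panel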
Sequence of Casein kinase I isoform delta (P48730 whole entry, canonical isoform): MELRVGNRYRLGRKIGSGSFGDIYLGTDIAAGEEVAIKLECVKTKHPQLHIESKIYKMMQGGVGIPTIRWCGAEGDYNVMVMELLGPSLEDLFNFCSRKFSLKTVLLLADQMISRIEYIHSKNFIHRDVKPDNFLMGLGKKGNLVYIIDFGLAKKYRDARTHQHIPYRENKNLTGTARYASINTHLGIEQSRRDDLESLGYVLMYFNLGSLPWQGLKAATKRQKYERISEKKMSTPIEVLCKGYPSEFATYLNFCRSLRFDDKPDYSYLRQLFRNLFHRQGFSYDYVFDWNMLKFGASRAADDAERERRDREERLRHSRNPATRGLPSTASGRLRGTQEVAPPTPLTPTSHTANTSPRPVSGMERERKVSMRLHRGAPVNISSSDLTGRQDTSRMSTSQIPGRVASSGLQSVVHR

[24] = Counterscreen for AddAB inhibitors: absorbance-based bacterial cell-based high throughput dose response assay for inhibitors of bacterial viability. [Related pubchem assays (depositor defined):AID435030, AID449728, AID449731, AID488942, AID488955, AID488956]
[25] = biological target: T1, Sentrin-specific protease 8 (Homo sapiens, UniProt Q96LD8)
T1 sequence (Q96LD8 whole entry): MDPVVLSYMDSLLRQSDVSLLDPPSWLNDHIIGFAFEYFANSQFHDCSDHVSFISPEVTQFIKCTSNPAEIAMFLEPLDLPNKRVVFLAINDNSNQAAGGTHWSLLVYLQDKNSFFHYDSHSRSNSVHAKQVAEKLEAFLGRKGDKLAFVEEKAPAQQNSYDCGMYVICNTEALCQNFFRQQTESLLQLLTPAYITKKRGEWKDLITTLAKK

Ki [1]: 1000 nM (active) | Ki [2]: > 5010 nM (inactive) | Ki [3]: 158 nM (active) | Ki [4]: 100 nM (active) | Ki [5]: 100 nM (active) | Ki [6]: > 2000 nM (inactive) | Ki [7]: 63.1 nM (active) | Ki [8]: 31.6 nM (active) | Ki (Aurora kinase B): 316 nM (active) | Ki [9]: 126 nM (active) | Ki [10]: 100 nM (active) | Ki [11]: 126 nM (active) | Ki [12]: > 2510 nM (inactive) | Ki [13]: > 794 nM (inactive) | Ki [14]: 794 nM (active) | Ki [15]: 3980 nM (active) | Ki [16]: 200 nM (active) | Ki [17]: 7.94 nM (active) | Ki [18]: 1260 nM (active) | Ki [19]: 3980 nM (active) | Ki [20]: > 6310 nM (inactive) | Ki [21]: 3160 nM (active) | Ki [22]: 200 nM (active) | Ki [23]: 200 nM (active)
Compound: OC1CCC(Nc2cc(Cl)nc(-c3c[nH]c4ncccc34)n2)CC1 (stereo unspecified)

Compound: COCC/N=c1\scc(-c2cccs2)n1/N=C/c1ccc(O)c(O)c1O
IC50 [24]: > 119000 nM (inactive)

Compound: O=C(COC(=O)c1ccc([N+](=O)[O-])s1)NCCc1ccccc1
IC50 [25]: 2820 nM (active)
